Source: patent publication US9101632B2, “Kinase inhibitors, prodrug forms thereof and their use in therapy” (AUCKLAND UNISERVICES LIMITED, priority 2009, dated 2015)
Like-named read-outs stand apart in the source and are kept apart here. Blank lines part the entries; values can stand above or below the compound they belong to.

Key:
A431 cells = assay: Inhibition of cellular proliferation (sulforhodamine B staining); details: for A431 HCR (Hypoxic Cytotoxicity Ratio): fold change in intra-experimental IC50, 4 hours anoxia relative to oxic only
SKOV3 cells = assay: as above; details: for SKOV3 HCR (Hypoxic Cytotoxicity Ratio): fold change in intra-experimental IC50, 4 hours anoxia relative to oxic only
H1975 cells = assay: as above; details: for H1975 HCR (Hypoxic Cytotoxicity Ratio): fold change in intra-experimental IC50, 4 hours anoxia relative to oxic only
H1975 tumours = details: H1975 xenograft, q3dx4, intraperitoneal; for Drug related deaths: lactate buffer pH 4; for Weight Loss Nadir (%): mean nadir relative to day 0 weight
[1] = pulse radiolysis, determined against methylviologen
p44/42 MAPK (Erk1/2) = assay: Inhibition of p44/42 MAPK (Erk1/2) phosphorylation in EGF-stimulated intact A431 cells (Western immunoblotting); assay type: cell-based, human
Description: (§1) A431 cells were seeded into 6 well plates (with αMEM+5% FCS). The following day, plates were washed once with serum-free medium and grown for 18 hours in serum-free medium (αMEM) before being exposed to a range of inhibitor or prodrug concentrations for 1 hour and then stimulated for 15 minutes with 100 ng/ml epidermal growth factor (EGF receptor ligand). Next cells were washed with ice cold PBS and lysed in modified RIPA buffer on ice (30 min). Lysates were vortexed and clarify by spinning before protein concentrations of samples was determined by BCA assay. […] All antibodies were diluted in 2% BSA TBS-Tween 0.1%. To detect phospho-EGFR (Tyr 1068) the monoclonal antibody (1:500; Cell Signalling #2234) was incubated overnight at 4° C. and binding was detected with goat-anti-Rabbit-IgG-HRP conjugated secondary antibody (1:5000; Santa Cruz #SC2054; 3 h RT). To detect downstream phospho-p44/42 MAPK(Erk 1/2) (Thr202/Tyr 204) the monoclonal antibody (Cell Signalling #4370) was used at a 1:500 dilution. The blot was then treated with Goat anti-rabbit IgG-HRP conjugated secondary antibody (Santa Cruz Biotechnology, Inc. sc-2054) for three hours at a ratio of 1:5000. To normalise for any inaccuracy in gel loading, each blot was probed with anti-β-actin antibody (Abacus ALS #MAB-1501R, 1:2000 dilution). The following day, the blot was treated with Goat anti-mouse IgG-HRP conjugated secondary antibody (Santa Cruz Biotechnology, Inc. sc-2055) for one hour at a 1:5000 ratio. Protein bands were visualized using Amersham ECL Plus Western Blotting Detection Reagent (GE Healthcare RPN2132). Densitometry was determined using Image J software. Values normalized to β-actin were plotted on SigmaPlot 11.0.

erbB1 (EGFR) = erbB1 (EGFR) (Homo sapiens, UniProt P00533); assay: Inhibition of erbB1 autophosphorylation in EGF-stimulated intact A431 cells (Western immunoblotting); assay type: cell-based; details: 1 hour treatment, phospho-EGFR (Tyr 1068), β-actin corrected
Description: as §1

A431 tumours = details: A431 xenograft, q3dx4, intraperitoneal; for Drug related deaths: lactate buffer pH 4; for TGD (Tumour Growth Delay): % increase in time to RTV4 relative to control; for Weight Loss Nadir (%): mean nadir relative to day 0 weight
[2] = read-out: Cellular Growth Inhibition IC50 A431 Anoxic, initial 4 hours of the 24 hour exposure under anoxic conditions
[3] = read-out: Cellular Growth Inhibition IC50 SKOV3 Anoxic, initial 4 hours of the 24 hour exposure under anoxic conditions
[4] = read-out: Cellular Growth Inhibition IC50 H1975 Anoxic, initial 4 hours of the 24 hour exposure under anoxic conditions
[5] = read-out: Cellular Growth Inhibition IC50 A431 Oxic, 24 hour exposure entirely under oxic conditions, washed, further 4 days
[6] = read-out: Cellular Growth Inhibition IC50 SKOV3 Oxic, 24 hour exposure entirely under oxic conditions, washed, further 4 days
[7] = read-out: Cellular Growth Inhibition IC50 H1975 Oxic, 24 hour exposure entirely under oxic conditions, washed, further 4 days

Chain of erbB1 (EGFR) (P00533 25-1210): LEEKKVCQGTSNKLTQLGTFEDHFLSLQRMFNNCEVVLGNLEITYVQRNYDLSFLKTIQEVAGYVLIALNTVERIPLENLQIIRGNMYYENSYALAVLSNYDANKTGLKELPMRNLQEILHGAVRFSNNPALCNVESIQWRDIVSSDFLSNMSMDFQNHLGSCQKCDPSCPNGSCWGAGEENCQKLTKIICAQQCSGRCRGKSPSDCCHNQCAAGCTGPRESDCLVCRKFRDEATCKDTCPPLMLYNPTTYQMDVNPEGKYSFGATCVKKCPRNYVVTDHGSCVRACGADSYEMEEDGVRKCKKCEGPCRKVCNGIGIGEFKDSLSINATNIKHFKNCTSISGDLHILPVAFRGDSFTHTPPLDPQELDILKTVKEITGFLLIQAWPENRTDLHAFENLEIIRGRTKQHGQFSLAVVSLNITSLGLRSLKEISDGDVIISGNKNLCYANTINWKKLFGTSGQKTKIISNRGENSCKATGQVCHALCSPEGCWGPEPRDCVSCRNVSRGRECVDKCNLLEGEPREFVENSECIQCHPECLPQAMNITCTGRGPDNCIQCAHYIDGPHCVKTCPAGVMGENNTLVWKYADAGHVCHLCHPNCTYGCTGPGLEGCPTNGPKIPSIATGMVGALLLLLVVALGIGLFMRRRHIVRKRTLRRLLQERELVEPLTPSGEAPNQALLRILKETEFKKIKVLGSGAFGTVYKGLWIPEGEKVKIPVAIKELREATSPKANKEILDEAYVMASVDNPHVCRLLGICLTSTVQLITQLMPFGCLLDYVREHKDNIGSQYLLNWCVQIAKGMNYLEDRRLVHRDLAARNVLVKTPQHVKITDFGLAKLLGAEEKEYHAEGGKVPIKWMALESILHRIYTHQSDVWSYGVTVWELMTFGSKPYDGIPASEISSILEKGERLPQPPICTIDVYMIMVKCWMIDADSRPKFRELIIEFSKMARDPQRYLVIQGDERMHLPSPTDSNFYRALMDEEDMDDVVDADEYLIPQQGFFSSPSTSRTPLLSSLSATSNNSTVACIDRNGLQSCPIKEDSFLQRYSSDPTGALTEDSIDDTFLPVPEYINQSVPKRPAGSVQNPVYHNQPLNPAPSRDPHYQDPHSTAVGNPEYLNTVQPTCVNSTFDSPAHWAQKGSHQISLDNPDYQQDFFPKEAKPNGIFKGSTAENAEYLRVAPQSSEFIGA

SMILES: CN(C)C/C=C/C(=O)Nc1cc2c(Nc3ccc4c(cnn4Cc4cccc(F)c4)c3)ncnc2cn1 [Compound 2, (2E)-4-(dimethylamino)-N-(4-{[1-(3-fluorobenzyl)-1H-indazol-5-yl]amino}pyrido[3,4-d]pyrimidin-6-yl)-2-butenamide]
- A431 HCR (Hypoxic Cytotoxicity Ratio) (A431 cells): 1.0
- IC50 (A431 cells; [2]): 90 nM
- IC50 (SKOV3 cells; [3]): 900 nM
- IC50 (H1975 cells; [4]): 1000 nM
- Drug related deaths (H1975 tumours): 0
- Weight Loss Nadir (%) (H1975 tumours): −7.9 ± 0.6%

SMILES: C#Cc1cc(Nc2ncnc3cnc(NC(=O)/C=C/CN(C)C)cc23)ccc1F [Compound 8, (2E)-4-(dimethylamino)-N-[4-(3-ethynyl-4-fluoroanilino)pyrido[3,4-d]pyrimidin-6-yl]-2-butenamide]
- IC50 (A431 cells; [2]): 120 nM
- IC50 (SKOV3 cells; [3]): 1800 nM
- IC50 (H1975 cells; [4]): 1400 nM
- Drug related deaths (H1975 tumours): 0
- Weight Loss Nadir (%) (H1975 tumours): −3.3 ± 3.0%

SMILES: Cn1cnc([N+](=O)[O-])c1C[N+](C)(C)C/C=C/C(=O)Nc1cc2c(Nc3ccc(Br)c(Br)c3)ncnc2cn1.[Br-] [Compound 19, (2E)-4-{[4-(3,4-dibromoanilino)pyrido[3,4-d]pyrimidin-6-yl]amino}-N,N-dimethyl-N-[(1-methyl-4-nitro-1H-imidazol-5-yl)methyl]-4-oxo-2-buten-1-ammonium bromide]
- IC50 (A431 cells; [2]): 25 nM
- IC50 (A431 cells; [5]): 420 nM
- IC50 (SKOV3 cells; [3]): 420 nM
- IC50 (SKOV3 cells; [6]): 29000 nM
- E(1)/V 1-electron reduction potential [1]: −0.425 V
- IC50 (H1975 cells; [4]): 230 nM
- IC50 (H1975 cells; [7]): 15000 nM
- Drug related deaths (H1975 tumours): 1
- TGD (Tumour Growth Delay) (H1975 tumours; % increase in time to RTV4 relative to control): 138%
- Weight Loss Nadir (%) (H1975 tumours): −2.7 ± 0.6%

SMILES: CN(C)C/C=C/C(=O)Nc1cc2c(Nc3ccc(OCc4ccccn4)c(Cl)c3)ncnc2cn1 [Compound 3, (2E)-N-{4-[3-chloro-4-(2-pyridinylmethoxy)anilino]pyrido[3,4-d]pyrimidin-6-yl}-4-(dimethylamino)-2-butenamide]
- IC50 (A431 cells; [2]): 140 nM
- IC50 (SKOV3 cells; [3]): 1130 nM
- downstream p44/42 MAPK(Erk 1/2) phosphorylation (Thr202/Tyr 204), result in words (p44/42 MAPK (Erk1/2); 1 hour treatment): coordinate loss
- IC50 (p44/42 MAPK (Erk1/2); Homo sapiens, A-431, 1 hour treatment, read-out: IC50 p44/42 MAPK(Erk 1/2) phosphorylation (Thr202/Tyr 204)): 179 nM
- H1975 HCR (Hypoxic Cytotoxicity Ratio) (H1975 cells): 0.8
- IC50 (H1975 cells; [4]): 730 nM
- IC50 (erbB1 (EGFR)): 48.3 nM
- Drug related deaths (H1975 tumours): 0
- Weight Loss Nadir (%) (H1975 tumours): −4.7 ± 0.4%

SMILES: CN(C)C/C=C/C(=O)Nc1cc2c(Nc3ccc(Cl)c(Cl)c3)ncnc2cn1 [Compound 4, (2E)-N-[4-(3,4-dichloroanilino)pyrido[3,4-d]pyrimidin-6-yl]-4-(dimethylamino)-2-butenamide]
- A431 HCR (Hypoxic Cytotoxicity Ratio) (A431 cells): 0.9
- IC50 (A431 cells; [2]): 15 nM
- IC50 (A431 cells; [5]): 9 nM
- SKOV3 HCR (Hypoxic Cytotoxicity Ratio) (SKOV3 cells): 0.9
- IC50 (SKOV3 cells; [3]): 550 nM
- IC50 (SKOV3 cells; [6]): 360 nM
- IC50 (H1975 cells; [4]): 560 nM
- Drug related deaths (H1975 tumours): 0
- Weight Loss Nadir (%) (H1975 tumours): −9.7 ± 4.0%

SMILES: Cn1cnc([N+](=O)[O-])c1C[N+](C)(C)C/C=C/C(=O)Nc1cc2c(Nc3ccc(Br)c(Cl)c3)ncnc2cn1.[Br-] [Compound 18, (2E)-4-{[4-(4-bromo-3-chloroanilino)pyrido[3,4-d]pyrimidin-6-yl]amino}-N,N-dimethyl-N-[(1-methyl-4-nitro-1H-imidazol-5-yl)methyl]-4-oxo-2-buten-1-ammonium bromide]
- IC50 (A431 cells; [2]): 12 nM
- IC50 (A431 cells; [5]): 500 nM
- SKOV3 HCR (Hypoxic Cytotoxicity Ratio) (SKOV3 cells): 24
- IC50 (SKOV3 cells; [3]): 600 nM
- IC50 (SKOV3 cells; [6]): 13000 nM
- E(1)/V 1-electron reduction potential [1]: −0.428 V
- Drug related deaths (A431 tumours): 0
- TGD (Tumour Growth Delay) (A431 tumours): >250%
- Weight Loss Nadir (%) (A431 tumours): −4.1 ± 0.4%
- IC50 (H1975 cells; [4]): 200 nM
- IC50 (H1975 cells; [7]): 13300 nM

SMILES: C#Cc1cc(Nc2ncnc3cnc(NC(=O)/C=C/C[N+](C)(C)Cc4c([N+](=O)[O-])ncn4C)cc23)ccc1F [Compound 20, (2E)-4-{[4-(3-ethynyl-4-fluoroanilino)pyrido[3,4-d]pyrimidin-6-yl]amino}-N,N-dimethyl-N-[(1-methyl-4-nitro-1H-imidazol-5-yl)methyl]-4-oxo-2-buten-1-ammonium bromide]
- IC50 (A431 cells; [2]): 130 nM
- IC50 (A431 cells; [5]): 3900 nM
- SKOV3 HCR (Hypoxic Cytotoxicity Ratio) (SKOV3 cells): 15
- IC50 (SKOV3 cells; [3]): 4400 nM
- IC50 (SKOV3 cells; [6]): 194000 nM
- IC50 (H1975 cells; [4]): 3300 nM
- IC50 (H1975 cells; [7]): 118000 nM
- Drug related deaths (H1975 tumours): 0
- Weight Loss Nadir (%) (H1975 tumours): −4.4 ± 2.3%

SMILES: C#Cc1cc(Nc2ncnc3cnc(NC(=O)/C=C/C[N+](C)(C)Cc4c([N+](=O)[O-])ncn4C)cc23)ccc1Cl [Compound 21, (2E)-4-{[4-(4-chloro-3-ethynylanilino)pyrido[3,4-d]pyrimidin-6-yl]amino}-N,N-dimethyl-N-[(1-methyl-4-nitro-1H-imidazol-5-yl)methyl]-4-oxo-2-buten-1-ammonium bromide]
- IC50 (A431 cells; [2]): < 10 nM
- IC50 (A431 cells; [5]): 850 nM
- IC50 (SKOV3 cells; [3]): 1130 nM
- IC50 (SKOV3 cells; [6]): 47000 nM
- Drug related deaths (A431 tumours): 0
- TGD (Tumour Growth Delay) (A431 tumours): >250%
- Weight Loss Nadir (%) (A431 tumours): −4.3 ± 2.3%
- H1975 HCR (Hypoxic Cytotoxicity Ratio) (H1975 cells): 18
- IC50 (H1975 cells; [4]): 600 nM
- IC50 (H1975 cells; [7]): 18000 nM

SMILES: CN(C)C/C=C/C(=O)Nc1cc2c(Nc3ccc(Br)c(Br)c3)ncnc2cn1 [Compound 7, (2E)-N-[4-(3,4-dibromoanilino)pyrido[3,4-d]pyrimidin-6-yl]-4-(dimethylamino)-2-butenamide]
- A431 HCR (Hypoxic Cytotoxicity Ratio) (A431 cells): 0.8
- IC50 (A431 cells; [2]): 8 nM
- IC50 (A431 cells; [5]): 5 nM
- IC50 (SKOV3 cells; [3]): 600 nM
- IC50 (SKOV3 cells; [6]): 370 nM
- H1975 HCR (Hypoxic Cytotoxicity Ratio) (H1975 cells): 1.0
- IC50 (H1975 cells; [4]): 270 nM
- IC50 (H1975 cells; [7]): 180 nM
- Drug related deaths (H1975 tumours): 1
- Weight Loss Nadir (%) (H1975 tumours): −4.9 ± 2.4%

SMILES: C#Cc1cc(Nc2ncnc3cnc(NC(=O)/C=C/CN(C)C)cc23)ccc1Cl [Compound 9, (2E)-N-[4-(4-chloro-3-ethynylanilino)pyrido[3,4-d]pyrimidin-6-yl]-4-(dimethylamino)-2-butenamide]
- IC50 (A431 cells; [2]): 16 nM
- IC50 (SKOV3 cells; [3]): 960 nM
- Drug related deaths (A431 tumours): 0
- TGD (Tumour Growth Delay) (A431 tumours): >250%
- Weight Loss Nadir (%) (A431 tumours): −1.7 ± 1.7%
- H1975 HCR (Hypoxic Cytotoxicity Ratio) (H1975 cells): 0.5
- IC50 (H1975 cells; [4]): 560 nM

SMILES: Cn1cnc([N+](=O)[O-])c1C[N+](C)(C)C/C=C/C(=O)Nc1cc2c(Nc3ccc(OCc4cccc(Cl)c4)c(Cl)c3)ncnc2cn1 [Compound 12, (2E)-4-[(4-{3-chloro-4-[(3-chlorobenzyl)oxy]anilino}pyrido[3,4-d]pyrimidin-6-yl)amino]-N,N-dimethyl-N-[(1-methyl-4-nitro-1H-imidazol-5-yl)methyl]-4-oxo-2-buten-1-ammonium bromide]
- IC50 (A431 cells; [2]): 370 nM
- IC50 (A431 cells; [5]): 2900 nM
- SKOV3 HCR (Hypoxic Cytotoxicity Ratio) (SKOV3 cells): 26
- IC50 (SKOV3 cells; [3]): 8100 nM
- IC50 (SKOV3 cells; [6]): 47000 nM
- H1975 HCR (Hypoxic Cytotoxicity Ratio) (H1975 cells): 14
- IC50 (H1975 cells; [4]): 2400 nM
- IC50 (H1975 cells; [7]): 36000 nM
- Drug related deaths (H1975 tumours): 0
- Weight Loss Nadir (%) (H1975 tumours): −7.8 ± 0.6%

SMILES: CN(C)C/C=C/C(=O)Nc1cc2c(Nc3ccc(OCc4cccc(Cl)c4)c(Cl)c3)ncnc2cn1 [Compound 1, (2E)-N-(4-{3-chloro-4-[(3-chlorobenzyl)oxy]anilino}pyrido[3,4-d]pyrimidin-6-yl)-4-(dimethylamino)-2-butenamide]
- IC50 (A431 cells; [2]): 221 nM
- IC50 (SKOV3 cells; [3]): 690 nM
- IC50 (H1975 cells; [4]): 880 nM
- Drug related deaths (H1975 tumours): 0
- Weight Loss Nadir (%) (H1975 tumours): −3.6 ± 3.0%

- IC50 (A431 cells; [2]): 63 nM
- IC50 (A431 cells; [5]): 5700 nM
- IC50 (SKOV3 cells; [3]): 1100 nM
- IC50 (SKOV3 cells; [6]): 32000 nM
- IC50 (H1975 cells; [4]): 1200 nM
- IC50 (H1975 cells; [7]): 20000 nM
SMILES: Cc1nc([N+](=O)[O-])c(C[N+](C)(C)C/C=C/C(=O)Nc2cc3c(Nc4ccc5c(cnn5Cc5cccc(F)c5)c4)ncnc3cn2)n1C [Compound 14, (2E)-N-[(1,2-dimethyl-4-nitro-1H-imidazol-5-yl)methyl]-4-[(4-{[1-(3-fluorobenzyl)-1H-indazol-5-yl]amino}pyrido[3,4-d]pyrimidin-6-yl)amino]-N,N-dimethyl-4-oxo-2-buten-1-ammonium bromide]
- H1975 HCR (Hypoxic Cytotoxicity Ratio) (H1975 cells): 26
